The results in this text go back to ChEMBL document CHEMBL1201862, “PubChem BioAssay data set” (2004).

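Where inhibition never reached the appropriate level, the endpoint shown equals the highest concentration tested. Otherwise, values were interpolated linearly from a five-concentration, 48-hour dose response in 96-well plates. Abbreviation: GI50, concentration required for 50% inhibition of growth.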 Active and inactive are the calls of the source. Rule as the data show it: active = GI50 up to about 1.1 µM and inactive = higher. Residues, ends and D or L forms follow the SMILES beside them. *: point of attachment. Boc = CC(C)(C)OC(=O)*; OBn = c1ccc(CO*)cc1; Bn = c1ccc(C*)cc1

Some test systems named below: HOP-62; KM12; OVCAR-3; UACC-257; Malme-3M; A549; HOP-92; RPMI-8226; HCC 2998; SNB-75; HL-60; RXF 393; NCI-H226; SF-295; UACC-62; M14; K562; NCI-H522; PC-3.
Common to all, as to test: growth of human tumour cells (NCI), 48 h

Turning to `CC(=O)OCC1OC(NC(=S)N/N=C2\CC(c3ccccc3)Oc3ccccc32)C(OC(C)=O)C(OC(C)=O)C1OC(C)=O` (stereo not drawn), the GI50 with HOP-62, in the assay with KM12, in the assay on OVCAR-3, with UACC-257, with Malme-3M and in the assay with A549 was > 100 µM (inactive) in each case. For the same compound, the GI50 with HOP-92, with RPMI-8226, in the assay on HCC 2998, with SNB-75, in the assay with HL-60 and in the assay on RXF 393 was > 100 µM (inactive) in each case. Also, the GI50 with NCI-H226, with SF-295, in the assay on UACC-62, in the assay with M14, with K562 and with NCI-H522 was > 100 µM (inactive) throughout.

In the case of `CC(Cl)(/C=C/Cl)C(Cl)/C=C/C(Cl)(CCl)CBr` (stereo not drawn), the GI50 was 24.3 µM (inactive) in the assay with HOP-62; 6.64 µM (inactive) in the assay on KM12; 12.5 µM (inactive) with OVCAR-3; 2.2 µM (inactive) in the assay with UACC-257; 3.37 µM (inactive) with Malme-3M; 15.2 µM (inactive) in the assay with A549. Also, the GI50 with HOP-92 was 2.07 µM (inactive); in the assay with RPMI-8226, 1.66 µM (inactive); in the assay with HCC 2998, 14.6 µM (inactive); with SNB-75 it was 3.17 µM (inactive); with HL-60 it was 0.533 µM (active); with RXF 393 it was 1.45 µM (inactive). Further, the GI50 in the assay with NCI-H226 was 10.2 µM (inactive); with SF-295, 6.53 µM (inactive); with UACC-62, 1.68 µM (inactive); in the assay with M14, 2.54 µM (inactive); in the assay with K562, 1.65 µM (inactive); in the assay with NCI-H522, 1.45 µM (inactive).

For the compound `COc1ccc2c3c(c(C(=O)O)oc13)CCC2`, the GI50 in the assay with HOP-62, with KM12, in the assay on OVCAR-3, in the assay with UACC-257, in the assay on Malme-3M and in the assay on A549 was > 100 µM (inactive) in each case. Further, the GI50 was > 100 µM (inactive) in the assay on HOP-92; > 100 µM (inactive) with RPMI-8226; > 100 µM (inactive) with HCC 2998; 29.1 µM (inactive) in the assay with SNB-75; > 100 µM (inactive) with HL-60; > 100 µM (inactive) with RXF 393. Further, the GI50 is 18.2 µM (inactive) in the assay on NCI-H226; > 100 µM (inactive) with SF-295; > 100 µM (inactive) with UACC-62; > 100 µM (inactive) with M14; > 100 µM (inactive) with K562; > 100 µM (inactive) in the assay on NCI-H522.

In the case of `CCCS(=O)(=O)/C(=C(\c1ccc(Br)cc1)S(=O)(=O)CCC)c1ccc(Br)cc1`, the GI50 in the assay on HOP-62, in the assay with KM12, with OVCAR-3, in the assay with UACC-257, in the assay with Malme-3M and in the assay on A549 was > 10 µM (inactive) each time. Further, the GI50 with HOP-92, in the assay with RPMI-8226, with HCC 2998, with SNB-75, with HL-60 and in the assay with RXF 393 was > 10 µM (inactive) in each case. Moreover, the GI50 with NCI-H226, with SF-295, with UACC-62, with M14, with K562 and in the assay on NCI-H522 was > 10 µM (inactive) each time.

Turning to `CCOC(=O)C1=C(C)N(Cc2ccccc2)C(C)=C(C(=O)OCC)C1c1ccccc1O`, the GI50 was 31.5 µM (inactive) in the assay with HOP-62; 23.7 µM (inactive) in the assay with KM12; 25.2 µM (inactive) in the assay with OVCAR-3; 26.9 µM (inactive) with UACC-257; 26 µM (inactive) in the assay with Malme-3M; 29.2 µM (inactive) in the assay with A549. Moreover, the GI50 is 13.7 µM (inactive) in the assay on HOP-92; 44.8 µM (inactive) in the assay on HCC 2998; 27.5 µM (inactive) in the assay with SNB-75; 26.6 µM (inactive) with HL-60; 18.7 µM (inactive) in the assay on RXF 393; 19.4 µM (inactive) in the assay with NCI-H226. Besides, the GI50 was 33.1 µM (inactive) in the assay on SF-295; 18.1 µM (inactive) in the assay with UACC-62; 33.7 µM (inactive) in the assay on M14; 33.4 µM (inactive) with K562; 25.6 µM (inactive) with NCI-H522.

Take `COc1cc(Br)c(/C=N\c2cccc3cc(OC)c(OC)cc23)cc1OC`: the GI50 in the assay on HOP-62 was > 100 µM (inactive); with KM12, 28.8 µM (inactive); with OVCAR-3 it was 23.5 µM (inactive); in the assay on UACC-257 it was 85.7 µM (inactive); in the assay with Malme-3M, 54.1 µM (inactive); in the assay with A549 it was > 100 µM (inactive). Also, the GI50 in the assay with HOP-92 is 28.2 µM (inactive); with RPMI-8226 it was 23.9 µM (inactive); in the assay with HCC 2998, > 100 µM (inactive); in the assay on SNB-75, 16.8 µM (inactive); in the assay with HL-60 it was 11.3 µM (inactive); in the assay with RXF 393, 20.2 µM (inactive). Further, the GI50 is 41.7 µM (inactive) in the assay with NCI-H226; 25.9 µM (inactive) with SF-295; 26 µM (inactive) in the assay with UACC-62; 30 µM (inactive) in the assay on M14; 19.9 µM (inactive) in the assay on K562; > 100 µM (inactive) with NCI-H522.

For `O=C(O)CCCNc1ncc2c(n1)-c1ccccc1OC2`, the GI50 with PC-3, in the assay on HOP-62, in the assay on KM12, in the assay on OVCAR-3, with UACC-257 and with Malme-3M was > 100 µM (inactive) in each case. The GI50 in the assay with A549 was > 100 µM (inactive); with HOP-92, > 100 µM (inactive); in the assay with RPMI-8226, > 100 µM (inactive); in the assay on SNB-75, 33.8 µM (inactive); in the assay on HL-60 it was 30.1 µM (inactive); in the assay with RXF 393 it was > 100 µM (inactive). Moreover, the GI50 with NCI-H226, in the assay with SF-295, in the assay on UACC-62, with M14, in the assay with K562 and in the assay with NCI-H522 was > 100 µM (inactive) each time.

Turning to `C1CCC2C(C1)CCCC2NC1=NCCO1` (stereo not drawn), the GI50 with PC-3 is 93.5 µM (inactive); in the assay on HOP-62, > 100 µM (inactive); in the assay with KM12, > 100 µM (inactive); in the assay on OVCAR-3 it was > 100 µM (inactive); in the assay with UACC-257, 69.3 µM (inactive); in the assay on Malme-3M, > 100 µM (inactive). Further, the GI50 in the assay with A549 was > 100 µM (inactive); in the assay on RPMI-8226 it was 92.5 µM (inactive); in the assay on HCC 2998, 72.9 µM (inactive); with SNB-75, 72.8 µM (inactive); in the assay on HL-60, > 100 µM (inactive); with RXF 393 it was 86.7 µM (inactive). The GI50 is > 100 µM (inactive) in the assay with NCI-H226; > 100 µM (inactive) with SF-295; > 100 µM (inactive) with UACC-62; 40 µM (inactive) in the assay with M14; > 100 µM (inactive) in the assay on K562; > 100 µM (inactive) in the assay on NCI-H522.

Turning to `CC(=O)O/C(C)=C\C(=O)O/N=C(\N)c1ccc(C)cc1`, the GI50 in the assay on HOP-62 is 33.1 µM (inactive); with KM12, 41.8 µM (inactive); in the assay on OVCAR-3, 34.7 µM (inactive); in the assay on UACC-257 it was 30.8 µM (inactive); in the assay with Malme-3M, 25.4 µM (inactive); in the assay on A549, 40.4 µM (inactive). The GI50 was 33.7 µM (inactive) in the assay on HOP-92; 31 µM (inactive) in the assay on RPMI-8226; > 100 µM (inactive) in the assay with HCC 2998; 19.2 µM (inactive) in the assay with SNB-75; 21.1 µM (inactive) with HL-60; 27.4 µM (inactive) in the assay with RXF 393. The GI50 in the assay on NCI-H226 is 28.1 µM (inactive); in the assay with SF-295 it was 35.2 µM (inactive); in the assay with UACC-62 it was 22.7 µM (inactive); in the assay on M14, 28.4 µM (inactive); in the assay on K562 it was 19.6 µM (inactive); in the assay with NCI-H522 it was 21 µM (inactive).

Regarding `CSc1ccc2c(cc1=O)C(NC(=O)c1cc(O)c(OC(=O)O)c(O)c1)CCc1cc(O)c(O)c(O)c1-2` (stereo not drawn), the GI50 with HOP-62 is 19 µM (inactive); in the assay on KM12, 22.8 µM (inactive); in the assay on OVCAR-3, 18.2 µM (inactive); in the assay on UACC-257, 31 µM (inactive); in the assay with Malme-3M, 35 µM (inactive); in the assay with A549, 19.5 µM (inactive). The GI50 is 22.8 µM (inactive) in the assay on HOP-92; 14.5 µM (inactive) in the assay on RPMI-8226; > 89.9 µM (inactive) in the assay on HCC 2998; 32.7 µM (inactive) with SNB-75; 10 µM (inactive) with HL-60; 25.9 µM (inactive) in the assay on RXF 393. In addition, the GI50 with NCI-H226 was 18.8 µM (inactive); in the assay with SF-295, 17.4 µM (inactive); with UACC-62, 14.7 µM (inactive); in the assay on M14, 12.1 µM (inactive); with K562, 12.2 µM (inactive); with NCI-H522, 5.87 µM (inactive).

In the case of `CC(C)CC(NC(=O)C(Cc1ccccc1)NC(=O)C(COCc1ccccc1)NC(=O)OC(C)(C)C)C(=O)OCc1ccccc1` (stereo not drawn) (Boc-Ser(Bn)-Phe-Leu-OBn; configuration not given here), the GI50 is 22.3 µM (inactive) with PC-3; 49.4 µM (inactive) in the assay on HOP-62; 20 µM (inactive) in the assay on OVCAR-3; 86.7 µM (inactive) with UACC-257; 78.2 µM (inactive) in the assay with Malme-3M; 6.95 µM (inactive) in the assay with RPMI-8226. Moreover, the GI50 in the assay on HCC 2998 was 14.7 µM (inactive); in the assay on SNB-75 it was 22.1 µM (inactive); in the assay with HL-60, 4.01 µM (inactive); in the assay with SF-295, 21.8 µM (inactive); in the assay with UACC-62, 17.5 µM (inactive); in the assay on M14, 37.1 µM (inactive). Besides, the GI50 in the assay with K562 was 9.57 µM (inactive); in the assay on NCI-H522 it was 13.8 µM (inactive).
